Measured values: US20110207694A1, “MAMMALIAN HYPOTHALAMIC NUTRIENT MODULATION OF GLUCOSE METABOLISM” (priority 2005, published 2011)

What was measured:
conscious rats = experiment: ICV glucose or lactate infusion with pancreatic basal insulin clamp: plasma glucose and liver glucose production; format: in vivo, rat
Description: We hypothesize that the hypothalamic sensing of glucose-derived pyruvate is a novel regulator of endogenous glucose production (GP). […] We propose that an increase in neuronal pyruvate levels is a hypothalamic signal of nutrient availability.
Long chain fatty acids in the brain decrease glucose production (GP) by the liver via activation of hypothalamus ATP-sensitive (KATP) channels. Here we tested whether (A) direct administration of glucose in the third cerebral ventricle can alter glucose production by the liver, and (B) whether this effect requires its metabolism in the TCA cycle.

hepatic VLDL secretion = experiment: Lipoprotein (VLDL) secretion studies with tyloxapol; NMR particle size; format: in vivo, rat; settings: ICV glucose
Procedure: Lipoproteins secretion and particles concentration and size measurements. Tyloxapol (600 mg/kg; ˜1 min) was intravenously injected to inhibit endogenous lipoprotein lipase. This high dose of tyloxapol ensured complete inhibition of triglyceride clearance during VLDL secretion studies. Plasma samples were taken every 30 min for triglycerides analysis and for lipoprotein profiling. Plasma VLDL particles concentration and size were determined by nuclear magnetic resonance spectroscopy (lipoprofile-II test) at Liposcience as previously described (Otvos et al., 1991; 1992). This NMR lipoprofile-II test is based on the assumption that each plasma lipoprotein particle of a particular size gives its own characteristic lipid NMR signal. The intensity of the signal is also in proportion to the concentration of the particle. The diameter range for large, medium and small VLDL is >60 nm, 35-60 nm, and 27-35 nm, respectively.
Selective hepatic branch vagotomy. The surgeries were performed as described (Lam et al., 2005c).
(§1) Treatment with SCD1 ASO. Five and two days before the lipoprotein secretion studies, rats received a single intra-peritoneal injection of either SCD1 or scrambled (SCR) ASO (100 mg/kg of body weight). […] In a separate set of studies, rats received intra-portal injection of either SCD1 or SCR ASO (40 mg/kg of body weight) (Gutierrez-Juarez et al., 2006) three days before the lipoprotein secretion studies.
Portal oleate infusion. Chronic portal catheter was implanted and 7 days were allowed for rat recovery. Oleic acid (45 mM; dissolved in 45% HBP) was infused at a rate of 40 μl/h for 2.5 h (1 h before the 90 min lipoprotein secretion studies). This dose enabled the reconstitution of hepatic oleyl-CoA levels back to normal during portal SCD1 ASO (FIG. 11c) or ICV glucose studies (FIG. 11d).

[1] = test system: Stearoyl-CoA Desaturase 1 (SCD1); experiment: Liver SCD1 activity, SCD1 mRNA and LCFA-CoA measurements; format: in vivo, rat
Procedure: as §1
Liver LCFA-CoA measurements. The liver was sampled and the LCFA-CoAs were extracted from the liver and measured by high-performance liquid chromatography (HPLC) as previously described (Lam et al., 2005c).
Stearoyl-CoA Desaturase 1 (SCD1) activity. CD1 activity assays were performed essentially as described (Cohen et al., 2002) using 1-[^14C]-stearoyl-CoA as a substrate. At the end of the reaction incubation long-chain acyl CoAs (LC Acyl-CoAs) were extracted and fractionated by reverse-phase HPLC as previously reported (Lam et al., 2005c). Chromatographically resolved stearoyl CoA (C18:0) and oleyl-CoA (C18:1) peaks were collected and counted in a β-scintillation counter. Protein was assayed by the bicinchoninic acid (BCA) method using a commercially available kit (Pierce Biotechnology, Rockford, Ill.) according to the manufacturer's instructions.
Gene expression. Stearoyl-CoA Desaturasel (SCD1) mRNA was measured by quantitative real-time PCR. Briefly, total RNA was extracted from either liver or fat tissue using the Trizol reagent (Invitrogen, Carlsbad, Calif.) according to the manufacturer instructions. cDNA was then synthesized from 2 μg of total RNA using the Superscript® III First-Strand kit TM? (Invitrogen, Carlsbad, Calif.). Samples of RNA in which the reverse transcriptase was omitted (no RT controls) were also included. The cDNA and no RT controls were diluted 1:20 with PCR grade water and 2 μl from each sample was used for PCR in a total volume of 20 μl. The FastStart DNA Master SYBR Green I kit (Roche Applied Science, Indianapolis, Ind.) and a LightCycler® 2 instrument (Roche Applied Science, Indianapolis, Ind.) were used in all experiments. Either 18S mRNA expression was routinely measured for normalization purposes. The primer sequences used were as follows: 5′-[…]-3′ and 5′-[…]-3′ for Scd1; and 5′-[…]-3′ and 5′-[…]-3′ for ribosomal 18S. The mRNA copy number was calculated from standard curves obtained using cloned target templates (plasmid DNA) of known copy number for each gene of interest.

male Sprague-Dawley rats = settings: ICV 2 mM glucose, 5 μl/h (Lam et al., 2005b); cited from earlier work

In the case of `O=C[C@H](O)[C@@H](O)[C@H](O)[C@H](O)CO` [glucose, D-glucose], the circulating glucose levels (conscious rats; central (ICV) administration) is reported as “lowered circulating glucose levels”, the gluconeogenesis and glycogenolysis (conscious rats; central administration) is reported as “inhibited gluconeogenesis and glycogenolysis” and the “liver glucose production, G6Pase flux and mRNA” value (conscious rats; central administration) is reported as “reduced liver glucose production, G6Pase flux and mRNA”. The plasma glucose concentrations (conscious rats; four hour ICV infusion 5 μl/h (glucose 2 mM, lactate 5 mM), control 150±4) was 133 ± 5 mg/dL, the “exogenous glucose infusion rate required to maintain euglycemia” value (conscious rats; pancreatic basal insulin clamps, central administration) was “increased exogenous glucose infusion rate” and the “GP (glucose production)” value (conscious rats; pancreatic clamps, plasma glucose and insulin at basal, ICV infusion, control 10.4±0.1 (glucose), 11.7±0.6 (lactate)) was 7.4 ± 0.3 mg/kg/min. The “hepatic content of triglycerides” value (hepatic VLDL secretion) was “increased”, the “rate of secretion of small (27-35 nm) and medium (35-60 nm) VLDL particles” value (hepatic VLDL secretion) was “tended to be higher” and the “secretion of large triglyceride-rich VLDL particles (diameter >60 nm)” value (hepatic VLDL secretion) was “dramatically and selectively blunted the secretion of large triglyceride-rich VLDL particles”. The “average size of the secreted VLDL particles” value (hepatic VLDL secretion; NMR spectroscopy) was “significant decrease in the average size of the secreted VLDL particles”, the “rate of secretion of VLDL-triglycerides” value (hepatic VLDL secretion; tyloxapol 600 mg/kg) was “suppressed the rate of secretion of VLDL-triglycerides within 90 minutes” and the “inhibitory effect on VLDL secretion in rats with resection of the hepatic branch of the vagus” value (hepatic VLDL secretion; preserved in sham-operated rats) was “abolished”. The “decrease in hepatic expression and activity of SCD1” value ([1]; ICV glucose) was about 70%, the “hepatic desaturation index (oleyl-CoA over stearoyl-CoA)” value ([1]; ICV glucose) was “reduction in the hepatic desaturation index” and the “hepatic oleyl-CoA levels” value ([1]; ICV glucose) was “decreased the levels of oleyl-CoA”. The “hepatic stearoyl-CoA levels” value ([1]; ICV glucose) was “increasing those of stearoyl-CoA”, the “hepatic oleyl-CoA levels, desaturation index and SCD1 activity” value ([1]; after 1 h (60 min) of ICV glucose infusion) was “Significant decreases in hepatic oleyl-CoA levels, desaturation index, and SCD1 activity” and the “rise in hypothalamic glucose levels” value (male Sprague-Dawley rats) was about 70%.
